These results are taken from US9512425B2, “Inhibiting migration of cancer cells” (Cornell University, priority 2012, dated 2016).

In one experiment the test system is MDA cells. Description: Wound healing / transwell migration with BAPTA-AM, MDA cells. Type of experiment: cell-based, human. Conditions: 20 μM BAPTA-AM. The method, then: (§1) Cells were plated in triplicate into 6-well plates (5×10^5 cell/well) and cultured in DMEM containing 10% FBS. A scratch wounded was generated using sterile plastic 200 μl pipette tip, and floating debris removed by washing with PBS. Cell migration was photographed and measured under phase-contrast microscopy. To measure cell migration after depletion of intracellular calcium, a scratch was made and the wound healing was monitored for 48 hr in the presence of 20 μM of BAPTA-AM (Invitrogen). The percentage of wound healed area was measured as a ratio of occupied area to the total area using Image J program (NIH).

Another experiment deals with MDA-MB-436 cells. Description: Wound healing migration with BAPTA-AM, MDA-MB-436 cells. Type of experiment: cell-based, human. As to conditions: MDA-MB-436 cells expressing miR-708, BAPTA-AM 20 μM, 48 hours. The method, then:
as §1

In the case of `CC(=O)OCOC(=O)CN(CC(=O)OCOC(C)=O)c1ccccc1OCCOc1ccccc1N(CC(=O)OCOC(C)=O)CC(=O)OCOC(C)=O` [BAPTA-AM], the cell migration result was “dramatic impairment” in the experiment on MDA cells (MDA control cells), “remained less affected” in the experiment with MDA cells (MDA-miR708 cells) and “rescued the migration defects” in the experiment on MDA-MB-436 cells.
